Results published in patent US20240122930A1, “INTEGRIN INHIBITORS AND USES THEREOF IN COMBINATION WITH OTHER AGENTS” (Pliant Therapeutics, Inc., priority 2022, published 2024).
pEC50: −log10 of the molar value.

Tests used:
[1] = tested on: normal human bronchial epithelial cells; test: LAP adhesion assay, normal human bronchial epithelial cells (xCELLigence); type: cell-based; details: FIG. 3A
Procedure: Two latency associated peptide (LAP) adhesion binding assays were devised using primary human lung cells, including normal (healthy) human bronchial epithelial cells and human lung fibroblasts (healthy and IPF).
Human bronchial epithelial cells are known to express αVβ6 integrin in culture. Human bronchial epithelial cells were prepared for the assay by dissociation with trypsin/EDTA and were then seeded at 20,000 cells per well on 96 well plates (ACEA Bioscience E-plate View, Acea Biosciences; San Diego, CA) previously coated with 5 μg/ml of recombinant human LAP (R&D Systems; Minneapolis, MN) and blocked with 4% bovine serum albumin.

bleomycin-treated mice = test: Murine bleomycin model (pSMAD3, collagen deposition); type: in vivo, mice (C57BL/6)
Procedure: Mice (C57BL/6) were divided into healthy (n=15), vehicle-treated (n=15), and test article-treated (n=15 per dose) groups. Mice in the vehicle and test article-treated groups were administered 3 U/kg of bleomycin (Teva Pharmaceuticals; North Wales, PA) via oropharyngeal aspiration while under anesthesia on day 0. Healthy animals were administered water in a similar fashion. Starting on day 7, mice in the control group were administered PBS vehicle, 130 μL, by oral gavage, BID for 14 days. Also starting on day 7, mice in the test group were administered Compound 5 in PBS by oral gavage, BID for 14 days, at relative dosages of 1×, 2.5× and 5×. […] From day 14 through day 21, 9 of the 15 mice were administered ^2H2O for labeling. All mice were sacrificed on day 21 and tissues were collected. Samples were prepared for analysis either directly from lung tissue, or by bronchoalveolar lavage, which washes out the bronchiolar and alveolar space with saline to produce a bronchoalveolar lavage fluid (BALF) in which 80-90% of cells are alveolar macrophages.
FIGS. 4F, 4G, and 4H show high resolution second harmonic generation images of fibrillar collagen (collagen type I and III) taken from formalin-fixed paraffin embedded lung tissue sections from a healthy mouse lung (4F), a vehicle-treated mouse lung (4G) and a test-article treated mouse lung (4H; 500 mg/kg BID). Color scale is indicative of collagen fiber density (red=most dense; blue=least dense).
FIG. 41 is a graph showing the percent total collagen area in the second harmonic generation mouse lung images. Large structural areas of collagen found similarly in healthy and fibrotic tissues (dense collagen fibers surrounding airways were excluded from this analysis to focus on interstitial fibrotic collagen). […] The 1×, 2.5×, and 5× dosages were at the same absolute values in mg/kg as in Example B7.
The data for FIGS. 4J and 4K, was obtained 14 days after bleomycin challenge in mice were treated with Compound 5 at 2.5× dose (PO, BID for 1.5 days).

lung Col1a1 expression = test: Precision cut lung slices, chronic bleomycin exposure, versus and with nintedanib and pirfenidone; type: cell-based, mice (C57BL/6); details: chronic bleomycin PCLS; for lung slice Col1a1 expression vs DMSO vehicle control slices: 7 days
Procedure: Mice (C57BL/6) were administered 3 U/kg of bleomycin (Teva Pharmaceuticals; North Wales, PA) on Day 0 and 1 U/kg of bleomycin on days 14, 28, 42 and 56 via oropharyngeal aspiration while under anesthesia. At day 70, 14 days following the final bleomycin insult, precision cut lung slices were obtained. […] The lobes were then subjected to precision slicing to obtain samples for culture using a microtome (Compresstome VF-300-OZ, Precisionary; Greenville, NC). Individual slices were distributed in a multiwell culture plate and cultured for 7 days under control (DMSO) and test compound conditions. The viability of the slices over the course of culturing was confirmed by WST-1 assay of mitochondrial activity. During the culture period, slices in the control group were treated with DMSO and slices in the test group were treated with a DMSO solution of one of: […]

[2] = αVβ6 target engagement by [18F]FP-R01-MG-F2 PET/CT in participants with IPF; type: in vivo, human; design: Vt / Vs (Vt − VND): unit not given here; details: human, plasma; Subject C, 320 mg; read-out: Conc (Unbound Plasma Concentration)
Procedure: (§1) The aim of this Example is to assess target engagement of the disclosed compounds to αVβ6 in human participants with IPF using [^18F]FP-R01-MG-F2 PET/computerized tomography (CT) imaging.
(§2) This Example was conducted as an open-label, single-dose (60 mg, 120 mg, 240 mg or 320 mg) clinical trial evaluating αVβ6 receptor occupancy in the lungs, safety, and pharmacokinetics of Compound #5 in subjects with IPF. To date, 4 participants have completed the study. Each of these 4 participants was undergoing a pre-existing course of therapy using one of the SoC (Standard of Care) compounds, nintedanib. These participants continued their pre-existing nintedanib therapy throughout this study. Knottin tracer uptake kinetics were compared pre- and post-dose of the disclosed compound, as measured by standardized uptake values (SUVs) and parameters estimated from kinetic modeling in regions-of-interest on dynamic [^18F]FP-R01-MG-F2 PET/CT scans. […] Receptor occupancy was estimated from the output of the two-compartment model (VT, the […]) using standard equations and fitting algorithms, and corrections for VND (non-displaceable tracer binding). For example, in FIG. 10, the data points, shown as circles, are modeled by the following formula: […]
(§3) Five subjects with IPF were enrolled: Subject A received a single dose of 60 mg of the disclosed compound followed by a post-dose scan. Subject B received two doses of the disclosed compound separated by two weeks, 120 mg and 240 mg, each followed by a post-dose scan. Subject C received two doses of the disclosed compound separated by two weeks, 240 mg and 320 mg, each followed by a post-dose scan. Subject D received a single dose of 320 mg of the disclosed compound followed by a post-dose scan.

αVβ6 = biological target: T1, αVβ6 (Homo sapiens, UniProt P06756+P18564); test: as above; type: in vivo; design: Vt / Vs (Vt − VND): unit not given here; details: for Vs (Vt − VND): VND = 0.66
T1 construct: clinical trial evaluating αVβ6 receptor occupancy in the lungs; from tissue; host or cells: lungs of human participants with IPF (in vivo PET/CT)
Procedure: as §1, §2, §3

integrin beta-6 (ITGB6) = test: Phase 2a clinical trial: plasma integrin beta-6; type: in vivo, human; details: IPF participants; greatest effect at 320 mg
Description: Med. 2022 June; 10(6):593-602, which is incorporated herein by reference in its entirety. […] Res. 2019 Jul. 12; 20(1):148, which is incorporated herein by reference in its entirety. ** denotes that p<0.01 vs placebo. LS refers to Least Squares. SE refers to Standard Error. Integrin beta-6 data was reported in relative quantitation log2 scale.

[3] = bleomycin mice, 1×, […], 5×, vs control mice
[4] = % target engagement fit of FIG. 10

T1 sequence (P06756 31-1048): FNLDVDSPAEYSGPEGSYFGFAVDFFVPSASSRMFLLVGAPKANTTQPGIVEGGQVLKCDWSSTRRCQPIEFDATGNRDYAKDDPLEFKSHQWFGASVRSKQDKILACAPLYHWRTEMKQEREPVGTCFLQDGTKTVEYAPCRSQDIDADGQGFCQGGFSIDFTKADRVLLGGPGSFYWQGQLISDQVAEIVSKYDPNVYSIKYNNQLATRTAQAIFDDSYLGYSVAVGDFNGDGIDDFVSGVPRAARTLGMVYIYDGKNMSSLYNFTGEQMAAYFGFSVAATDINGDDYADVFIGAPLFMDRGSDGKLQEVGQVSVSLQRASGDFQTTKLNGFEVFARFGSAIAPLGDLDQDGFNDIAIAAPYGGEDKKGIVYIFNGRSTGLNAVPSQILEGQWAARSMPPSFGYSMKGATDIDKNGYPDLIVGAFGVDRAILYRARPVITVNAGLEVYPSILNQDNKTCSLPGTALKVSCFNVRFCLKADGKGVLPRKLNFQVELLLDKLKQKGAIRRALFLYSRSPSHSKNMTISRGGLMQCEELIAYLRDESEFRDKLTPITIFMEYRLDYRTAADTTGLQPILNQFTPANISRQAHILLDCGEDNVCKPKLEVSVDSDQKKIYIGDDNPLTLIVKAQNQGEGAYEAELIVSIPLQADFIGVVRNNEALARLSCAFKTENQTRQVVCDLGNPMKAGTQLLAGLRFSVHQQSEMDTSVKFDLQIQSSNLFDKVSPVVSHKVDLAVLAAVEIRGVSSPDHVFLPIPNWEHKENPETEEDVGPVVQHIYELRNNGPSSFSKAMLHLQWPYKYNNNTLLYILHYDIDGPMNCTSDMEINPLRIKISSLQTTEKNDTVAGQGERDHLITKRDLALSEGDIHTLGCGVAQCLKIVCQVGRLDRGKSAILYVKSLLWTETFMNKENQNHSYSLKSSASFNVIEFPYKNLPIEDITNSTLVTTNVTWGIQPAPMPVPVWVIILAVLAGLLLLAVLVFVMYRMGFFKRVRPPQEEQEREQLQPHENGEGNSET
T1 sequence (P18564 22-788): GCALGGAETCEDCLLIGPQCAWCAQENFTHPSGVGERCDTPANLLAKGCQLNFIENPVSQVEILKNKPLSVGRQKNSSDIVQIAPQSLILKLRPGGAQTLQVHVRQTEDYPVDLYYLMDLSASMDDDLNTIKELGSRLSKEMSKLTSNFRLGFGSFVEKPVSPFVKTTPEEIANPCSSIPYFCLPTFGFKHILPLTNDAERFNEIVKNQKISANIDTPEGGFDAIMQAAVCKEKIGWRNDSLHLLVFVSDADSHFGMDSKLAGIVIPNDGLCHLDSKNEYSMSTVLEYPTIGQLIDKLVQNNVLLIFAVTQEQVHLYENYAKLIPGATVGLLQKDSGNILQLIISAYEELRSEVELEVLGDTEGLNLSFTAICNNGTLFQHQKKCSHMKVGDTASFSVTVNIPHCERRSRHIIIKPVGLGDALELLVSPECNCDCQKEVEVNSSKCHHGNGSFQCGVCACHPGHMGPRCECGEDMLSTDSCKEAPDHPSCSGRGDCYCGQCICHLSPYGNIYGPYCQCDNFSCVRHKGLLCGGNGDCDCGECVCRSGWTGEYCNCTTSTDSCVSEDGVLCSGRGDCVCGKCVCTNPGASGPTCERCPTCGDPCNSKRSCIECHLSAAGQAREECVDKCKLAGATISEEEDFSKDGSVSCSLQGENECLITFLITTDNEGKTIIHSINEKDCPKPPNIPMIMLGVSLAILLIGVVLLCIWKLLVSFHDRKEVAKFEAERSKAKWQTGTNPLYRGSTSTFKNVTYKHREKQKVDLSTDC

## COCCN(CCCCc1ccc2c(n1)NCCC2)CC[C@H](Nc1ncnc2ccccc12)C(=O)O [Compound 5, (S)-4-((2-methoxyethyl) (4-(5,6,7,8-tetrahydro-1,8-naphthyridin-2-yl)butyl)amino)-2-(quinazolin-4-ylamino) butanoic acid]
[1]
  normal bronchial epithelial cell adhesion to LAP: substantially inhibited
bleomycin-treated mice; 14 days after bleomycin challenge, […] dose PO BID for 1.5 days
  relationship between pSMAD3 levels in lung and BALF cells vs. plasma drug exposure: close inverse relationship
bleomycin-treated mice; bleomycin mice, 1× and 5×, vs control mice
  accumulated new collagen (percentage of lung collagen containing 2H-labeled hydroxyproline): dose-dependent reduction
bleomycin-treated mice; [3]
  percent total collagen area in second harmonic generation images: substantial, statistically significant dose-dependent reduction
  total pulmonary collagen (μg of hydroxyproline): reduction in total pulmonary collagen
bleomycin-treated mice; bleomycin mice, oral gavage BID 14 days, 1×, […], 5× dosages, vs vehicle
  SMAD3 phosphorylation in lung tissue: substantial, statistically significant dose-dependent reductions
Lung Col1a1 expression; 7 days culture, single agents
  lung Col1a1 expression vs DMSO vehicle control slices: substantial, statistically significant (p<0.01 vs vehicle) decrease
Lung Col1a1 expression; in combination with nintedanib
  lung slice Col1a1 expression vs DMSO vehicle control slices: substantial, statistically significant (p<0.01 vs vehicle) decrease
Lung Col1a1 expression; in combination with pirfenidone
  lung slice Col1a1 expression vs DMSO vehicle control slices: substantial, statistically significant (p<0.01 vs vehicle) decrease
[2]
  concentration at 4 h: 98.5 nM
αVβ6; 60 mg dose
  decrease of the volume of distribution of the knottin radiotracer in the lungs: approximately 50%
αVβ6; 240 and 320 mg doses
  decrease of the volume of distribution of the knottin radiotracer in the lungs: greater than 95%
αVβ6; [4]
  best-fit bottom value: 0
  best-fit hillslope value: 1.11
  best-fit top value: 87.4
αVβ6; Subject A, 60 mg
  Conc (Unbound Plasma Concentration): 3.66 nM
αVβ6; Subject A, post-dose 60 mg
  Vt: 1.84
  Vs (Vt − VND): 1.18
αVβ6; Subject B, 120 mg
  Conc (Unbound Plasma Concentration): 10 nM
αVβ6; Subject B, 120 mg, corrected for non-displaceable binding
  %DeltaVt: 59.76%
αVβ6; Subject B, 240 mg
  Conc (Unbound Plasma Concentration): 58.3 nM
αVβ6; Subject B, post-dose 120 mg
  Vt: 1.65
  Vs (Vt − VND): 0.99
αVβ6; Subject B, post-dose 240 mg
  Vt: 0.72
  Vs (Vt − VND): 0.06
αVβ6; Subject C, 240 mg
  Conc (Unbound Plasma Concentration): 103 nM
αVβ6; Subject C, post-dose 240 mg
  Vt: 0.98
  Vs (Vt − VND): 0.32
αVβ6; Subject C, post-dose 320 mg
  Vt: 0.85
  Vs (Vt − VND): 0.19
αVβ6; Subject D, 320 mg
  Conc (Unbound Plasma Concentration): 33.6 nM
αVβ6; Subject D, post-dose 320 mg
  Vt: 0.75
  Vs (Vt − VND): 0.09
αVβ6; at pharmacologically relevant plasma concentrations
  Receptor occupancy: > 95%
αVβ6; drug exposure at 4 hours, approaching 100% receptor occupancy
  concentration at which the exposure response saturates: about 100 nM
αVβ6; unbound plasma concentration vs % target engagement, 4-parameter non-linear regression (FIG. 10), read-out: best-fit EC50
  pEC50: 8.53
Integrin beta-6 (ITGB6)
  Circulating (plasma) integrin beta-6 levels relative to placebo: reduced
